# Measured values reported in patent US20170066759A1, “AROMATIC 5-MEMBERED HETEROCYCLIC DERIVATIVE HAVING TRPV4-INHIBITING ACTIVITY” (Shionogi & Co., Ltd., priority 2012, published 2017).
# Molecular target: T1, human TRPV4 (hTRPV4/CHO cells) (Homo sapiens, UniProt Q9HBA0)
# T1 construct: expressed in transfected cells; host or cells: CHO-K1
# Assay: Test Example 1: TRPV4 inhibitory activity (IC50 value), 4α-PDD stimulation, Fluo4 calcium fluorescence (FLIPR TETRA)
# Format: cell-based
# Conditions: 1 μmol/L 4α-PDD, Fluo4-AM, read-out: TRPV4 inhibitory activity (IC50 value)
# T1 sequence (Q9HBA0 whole entry): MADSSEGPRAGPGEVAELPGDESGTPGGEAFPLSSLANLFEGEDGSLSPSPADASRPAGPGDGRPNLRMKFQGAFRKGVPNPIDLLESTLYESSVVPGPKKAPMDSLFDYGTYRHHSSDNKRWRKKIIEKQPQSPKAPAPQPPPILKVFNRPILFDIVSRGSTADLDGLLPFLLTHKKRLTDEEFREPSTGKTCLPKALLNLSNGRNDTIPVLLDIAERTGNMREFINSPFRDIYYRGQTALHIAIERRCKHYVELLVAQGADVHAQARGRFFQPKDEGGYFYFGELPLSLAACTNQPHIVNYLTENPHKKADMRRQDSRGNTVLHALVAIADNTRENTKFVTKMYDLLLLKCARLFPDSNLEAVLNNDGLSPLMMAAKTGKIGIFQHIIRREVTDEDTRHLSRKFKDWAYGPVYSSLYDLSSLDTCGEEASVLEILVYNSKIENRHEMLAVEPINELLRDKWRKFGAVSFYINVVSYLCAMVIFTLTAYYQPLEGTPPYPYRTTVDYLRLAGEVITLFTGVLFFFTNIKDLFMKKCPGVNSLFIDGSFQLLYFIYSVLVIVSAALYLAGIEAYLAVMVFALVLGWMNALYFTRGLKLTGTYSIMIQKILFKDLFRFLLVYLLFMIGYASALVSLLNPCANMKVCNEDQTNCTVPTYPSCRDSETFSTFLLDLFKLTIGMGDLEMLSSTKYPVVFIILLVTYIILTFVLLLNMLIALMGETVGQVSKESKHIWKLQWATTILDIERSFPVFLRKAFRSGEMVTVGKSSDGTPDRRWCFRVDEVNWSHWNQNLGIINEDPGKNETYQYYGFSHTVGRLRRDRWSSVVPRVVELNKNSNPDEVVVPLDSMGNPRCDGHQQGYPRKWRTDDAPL
row,SMILES,IC50 [nM]
1,Cc1nc(CO)sc1-c1csc(NC(=O)C2CN(c3ccc(C(F)(F)F)cn3)C2)n1 [Compound I-297],22

# Same assay, conditions: Test Example 1, 4α-PDD stimulation, read-out: Test 1 IC50
row,SMILES,IC50 [nM]
1,Cc1nc(CO)sc1-c1csc(NC(=O)C2CN(c3ccc(C(F)(F)F)cn3)C2)n1 [Compound I-297],< 100
2,Cc1nc(C)c(-c2csc(NC3CCCCC3)n2)s1 [II-37],< 100
3,CCNCc1nc(C)sc1-c1csc(NC(=O)Cc2c(F)cccc2F)n1 [Compound I-198],100 to 1000
4,O=C(Cc1ccc(S(=O)(=O)C(F)(F)F)cc1)Nc1nc(-c2sc(CO)nc2CN2CCCC2=O)cs1 [Compound I-463],100 to 1000
5,Cc1nc(C)c(-c2csc(NC(=O)Cc3cc(N)cc(C(=O)N[C@H](c4ccccc4)C(F)(F)F)c3)n2)s1 [Compound I-518],< 100
6,O=C(Nc1nc(-c2sc(CO)nc2CCCO)cs1)C1CN(c2ccc(C(F)(F)F)cc2)C1 [Compound I-348],< 100
7,Cc1nc(CO)sc1-c1csc(NC(=O)[C@H]2C[C@@H](NCc3ccc(C(F)(F)F)cc3)C2)n1 [Compound I-319],100 to 1000
8,Cc1nc(CO)sc1-c1csc(NC(=O)[C@H]2C[C@@H](N(C)CC(F)(F)F)C2)n1 [Compound I-304],100 to 1000
9,CC(=O)c1nc(C)c(-c2csc(NC(=O)Cc3c(F)cccc3F)n2)s1 [Compound I-98],100 to 1000
10,Cc1nc(CO)sc1-c1csc(NC(=O)[C@H]2C[C@@H](C(F)F)C2)n1 [Compound I-355],100 to 1000
11,Cc1nc(C)c(-c2csc(NC(=O)[C@H](Cc3ccccc3)NC(=O)OC(C)(C)C)n2)s1 [Compound I-265],100 to 1000
12,Cc1nc(C(F)F)sc1-c1csc(NC(=O)C2CC(OCc3ccccc3)C2)n1 (stereo not shown) [Compound I-111],1000 to 8000
13,Cc1nc(C)c(-c2csc(NC(=O)[C@H]3C[C@H](c4ccccc4)CN3C(=O)OC(C)(C)C)n2)s1 [Compound I-245],< 100
14,O=C(Nc1nc(-c2sc(CO)nc2CO)cs1)[C@@H]1C[C@@H](c2ccccc2)CN1CC(F)(F)F [Compound I-337],1000 to 8000
15,O=C(Nc1nc(-c2sc(CO)nc2CO)cs1)[C@@H]1C[C@@H](c2ccccc2)CN1S(=O)(=O)C(F)(F)F [Compound I-338],100 to 1000
16,Cc1nc(CNC(N)=O)sc1-c1csc(NC(=O)Cc2ccc(S(=O)(=O)C(F)(F)F)cc2)n1 [Compound I-398],1000 to 8000
17,Cc1nc(C(=O)NCCN(C)C)c(-c2csc(NC(=O)Cc3c(F)cccc3F)n2)s1 [Compound I-188],1000 to 8000
18,Cc1nc(C)c(-c2csc(NC(=O)[C@H](CCc3ccccc3)NC(=O)OC(C)(C)C)n2)s1 [Compound I-266],100 to 1000
19,CCS(=O)(=O)c1ccc(CC(=O)Nc2nc(-c3sc(C)nc3C)cs2)cc1 [Compound I-80],100 to 1000
20,Cc1nc(C)c(-c2csc(NC(=O)CN3CCC(O)(c4ccccc4)CC3)n2)s1 [Compound I-153],1000 to 8000
21,Cc1nc(C)c(-c2csc(NC(=O)Cc3cccc(S(=O)(=O)Nc4ccc(C(F)(F)F)cc4)c3)n2)s1 [Compound I-498],< 100
22,Cc1nc(C)c(-c2csc(NC(=O)C3CN(Cc4ccc(C(F)(F)F)cc4)C3)n2)s1 [Compound I-258],< 100
23,C=C(C)c1nc(C)sc1-c1csc(NC(=O)Cc2c(F)cccc2F)n1 [Compound I-545],100 to 1000
24,O=C(Nc1nc(-c2sc(CO)nc2CO)cs1)C1CN(c2ccccc2C(F)(F)F)C1 [Compound I-327],< 100
25,Cc1nc(C)c(-c2csc(NC(=O)Cc3cccc(C(=O)N[C@H](c4ccccc4)C(F)(F)F)c3)n2)s1 [Compound I-489],< 100

row,SMILES,IC50 [nM]
1,Cc1nc(C)c(-c2csc(CCOc3ccc(Br)cc3)n2)s1 [II-4],1000 to 8000
2,Cc1nc(C)c(-c2csc(NCC(O)c3ccccc3)n2)s1 (racemic) [II-39],100 to 1000
3,Cc1nc(C)c(-c2csc(NC(=O)Cc3cccc(C#N)c3)n2)o1 [Compound I-138],1000 to 8000
4,Cc1nc(C#N)sc1-c1csc(NC(=O)Cc2ccc(S(=O)(=O)C(F)(F)F)cc2)n1 [Compound I-402],100 to 1000
5,CC(=O)N1C[C@H](Oc2ccccc2)C[C@H]1C(=O)Nc1nc(-c2sc(C)nc2C)cs1 [Compound I-251],1000 to 8000
6,Cc1nc(C)c(-c2csc(NC(=O)N3CC(F)C3)n2)s1 [Compound I-90],1000 to 8000
7,Cc1nc(C)c(-c2csc(NC3CCCC3)n2)s1 [II-38],< 100
8,Cc1nc(CS(=O)(=O)C(F)(F)F)c(-c2csc(NC(=O)Cc3ccc(S(=O)(=O)C(F)(F)F)cc3)n2)s1 [Compound I-486],100 to 1000
9,Cc1nc(C)c(-c2nc(NC(=O)Cc3c(F)cccc3F)sc2C(=O)Nc2ccccc2Cl)s1 [Compound I-86],1000 to 8000
10,CC(OC(N)=O)c1nc(CO)sc1-c1csc(NC(=O)Cc2ccc(S(=O)(=O)C(F)(F)F)cc2)n1 (racemic) [Compound I-474],100 to 1000
11,Cc1nc(C)c(-c2csc(NC(=O)C3CN(c4ccc(C(F)(F)F)cn4)C3)n2)s1 [Compound I-259],< 100
12,Cc1nc(CO)sc1-c1csc(NC(=O)Cn2cc(C(F)(F)F)cn2)n1 [Compound I-136],< 100
13,CNC(=N)c1nc(C)c(-c2csc(NC(=O)Cc3ccc(S(=O)(=O)C(F)(F)F)cc3)n2)s1 [Compound I-441],100 to 1000
14,Cc1nc(C)c(-c2csc(NC(=O)Cc3cccc(C(=O)NC(c4ccccc4)C(F)(F)F)n3)n2)s1 (stereo not shown) [Compound I-506],< 100
15,Cc1nc(C)c(-c2nc(NC(=O)Cc3c(F)cccc3F)sc2CO)s1 [Compound I-74],1000 to 8000
16,O=C(Nc1nc(-c2sc(CO)nc2CO)cs1)C1CN(c2ccc(F)cc2)C1 [Compound I-372],100 to 1000
17,O=C(Nc1nc(-c2sc(CO)nc2CCCN2CCOCC2)cs1)C1CN(c2ccc(C(F)(F)F)cc2)C1 [Compound I-352],< 100
18,Cc1nc(C)c(-c2csc(NC(=O)C3CN(c4ccc(-c5ccccc5)nn4)C3)n2)s1 [Compound I-285],100 to 1000
19,Cc1nc(C)c(-c2csc(NC(Cc3ccc(Cl)cc3)C(=O)Nc3ccccc3)n2)s1 (racemic) [II-44],1000 to 8000
20,Cc1nc(C)c(-c2csc(NC(=O)[C@H]3C[C@H](Cl)C3)n2)s1 [Compound I-326],< 100
21,C=C(C)c1sc(NC(=O)Cc2c(F)cccc2F)nc1-c1sc(C)nc1C [Compound I-71],1000 to 8000
22,Cc1nc(C)c(-c2csc(Nc3cnccn3)n2)s1 [II-34],< 100
23,Cc1nc(CO)oc1-c1csc(NC(=O)Cn2cc(C(F)(F)F)cn2)n1 [Compound I-419],1000 to 8000
24,Cc1nc(CO)sc1-c1csc(NC(=O)[C@@H]2C[C@@H](c3ccccc3)CN2C(=O)OC(C)(C)C)n1 [Compound I-277],< 100
25,Cc1nc(C)c(-c2csc(NC(=O)C3CN(c4ccc(C(F)(F)F)cc4)C3)n2)s1 [Compound I-497],< 100

row,SMILES,IC50 [nM]
1,CC(C)OC(=O)N1C[C@H](c2ccccc2)C[C@H]1C(=O)Nc1nc(-c2sc(CO)nc2CO)cs1 [Compound I-344],100 to 1000
2,O=C(Cc1ccc(S(=O)(=O)C(F)(F)F)cc1)Nc1nc(-c2sc(CO)nc2CN2CCOCC2)cs1 [Compound I-385],100 to 1000
3,Cc1nc(C(O)CC(=O)O)sc1-c1csc(NC(=O)Cc2c(F)cccc2F)n1 (stereo not shown) [Compound I-135],1000 to 8000
4,Cc1nc(C)c(-c2nc(NC(=O)Cc3c(F)cccc3F)sc2C(=O)Nc2cccc(Cl)c2)s1 [Compound I-82],1000 to 8000
5,Cc1nc(C)c(-c2csc(NC(=O)Cn3cc(C#N)cn3)n2)s1 [Compound I-123],1000 to 8000
6,COCCOc1nc(C)c(-c2csc(NC(=O)Cc3ccc(S(=O)(=O)C(F)(F)F)cc3)n2)s1 [Compound I-445],1000 to 8000
7,Cc1nc(C)c(-c2csc(NC(=O)[C@@H]3C[C@@H](c4ccccc4)CN3C=[N+](C)C)n2)s1 [Compound I-294],1000 to 8000
8,"CC(=O)NC(C)c1nc(CO)sc1-c1csc(NC(=O)Cc2ccc(S(=O)(=O)C(F)(F)F)cc2)n1 (single isomer, unassigned) [Compound I-482]",100 to 1000
9,Cc1nc(C)c(-c2csc(NC(=O)[C@H]3CCN(c4ncc(C(F)(F)F)cn4)C3)n2)s1 [Compound I-388],< 100
10,Cc1nc(C)c(-c2csc(NC(=O)C3CC(c4ccccc4)=NO3)n2)s1 (stereo not shown) [Compound I-206],100 to 1000
11,COc1ccc(N2CC(C(=O)Nc3nc(-c4sc(CO)nc4C)cs3)CC2=O)cc1 (stereo not shown) [Compound I-200],1000 to 8000
12,CCOC(=O)c1nc(C)c(-c2csc(NC(=O)Cc3c(F)cccc3F)n2)s1 [Compound I-94],100 to 1000
13,Cc1nc(CO)sc1-c1csc(NC(=O)C2CCN(S(=O)(=O)C(F)(F)F)C2)n1 (stereo not shown) [Compound I-214],100 to 1000
14,Cc1nc(CO)sc1-c1csc(NC(=O)[C@H]2C[C@H](F)C2)n1 [Compound I-202],< 100
15,Cc1nc(C)c(-c2csc(NC(=O)Cc3ccc(S(=O)(=O)C(F)(F)F)cc3)n2)[nH]1 [Compound I-477],1000 to 8000
16,Cc1nc(C)c(-c2nc(NC(=O)Cc3c(F)cccc3F)sc2I)s1 [Compound I-65],1000 to 8000
17,Cc1nc(C)c(-c2csc(NC(=O)[C@@H]3C[C@@H](N4CCC(c5ccccc5)CC4)CN3C(=O)C(F)(F)F)n2)s1 [Compound I-276],< 100
18,CC(C)OC(=O)NCc1nc(CO)sc1-c1csc(NC(=O)C2CN(c3ccc(C(F)(F)F)cc3)C2)n1 [Compound I-350],< 100
19,"CC(OC(N)=O)c1nc(CO)sc1-c1csc(NC(=O)Cc2ccc(S(=O)(=O)C(F)(F)F)cc2)n1 (single isomer, unassigned) [Compound I-478]",100 to 1000
20,Cc1nc(CO)sc1-c1csc(NC(=O)C2CC(c3ccccc3)=NO2)n1 (stereo not shown) [Compound I-207],100 to 1000
21,Cc1nc(CO)sc1-c1csc(NC(=O)CC2CCN(S(=O)(=O)C(F)(F)F)CC2)n1 [Compound I-453],100 to 1000
22,Cc1nc(C)c(-c2csc(NC(=O)C3CN(Cc4ccc(C(F)(F)F)nc4)C3)n2)s1 [Compound I-282],100 to 1000
23,Cc1[nH]c(=O)sc1-c1csc(NC(=O)Cc2c(F)cccc2F)n1 [Compound I-93],100 to 1000
24,Cc1nc(C)c(-c2nc(NC(=O)Cc3c(F)cccc3F)sc2-c2ccsc2)s1 [Compound I-538],1000 to 8000
25,O=C(O)CCc1nc(CO)sc1-c1csc(NC(=O)C2CN(c3ccc(C(F)(F)F)cc3)C2)n1 [Compound I-351],1000 to 8000
